Key:
Assay in all cases: Kinase profiling
Assay type in all cases: biochemical
[1] = biological target: T1, DMPK (Homo sapiens, UniProt Q09013)
T1 construct: purchased ProQinase (Freiburg, Germany)
T1 sequence (Q09013 1-629): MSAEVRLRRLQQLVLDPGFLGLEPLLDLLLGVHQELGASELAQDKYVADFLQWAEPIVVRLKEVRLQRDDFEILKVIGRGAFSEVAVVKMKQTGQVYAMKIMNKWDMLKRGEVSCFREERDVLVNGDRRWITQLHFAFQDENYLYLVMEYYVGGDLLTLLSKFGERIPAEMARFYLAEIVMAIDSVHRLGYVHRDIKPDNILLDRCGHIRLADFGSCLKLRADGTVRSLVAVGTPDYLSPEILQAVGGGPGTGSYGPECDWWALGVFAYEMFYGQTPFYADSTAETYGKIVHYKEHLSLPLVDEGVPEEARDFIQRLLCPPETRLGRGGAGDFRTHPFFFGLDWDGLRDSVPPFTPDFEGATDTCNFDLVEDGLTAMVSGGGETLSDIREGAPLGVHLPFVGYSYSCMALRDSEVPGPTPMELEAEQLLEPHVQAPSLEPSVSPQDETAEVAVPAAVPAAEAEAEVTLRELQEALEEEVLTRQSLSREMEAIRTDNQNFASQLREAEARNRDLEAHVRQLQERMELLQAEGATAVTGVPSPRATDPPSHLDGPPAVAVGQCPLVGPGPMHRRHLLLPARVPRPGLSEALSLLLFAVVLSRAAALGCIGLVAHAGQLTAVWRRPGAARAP
Description: (§1) The analysis was performed by ProQinase (Freiburg, Germany).

[2] = biological target: T2, PKCiota (Homo sapiens, UniProt P41743)
T2 construct: purchased ProQinase (Freiburg, Germany)
T2 sequence (P41743 1-596): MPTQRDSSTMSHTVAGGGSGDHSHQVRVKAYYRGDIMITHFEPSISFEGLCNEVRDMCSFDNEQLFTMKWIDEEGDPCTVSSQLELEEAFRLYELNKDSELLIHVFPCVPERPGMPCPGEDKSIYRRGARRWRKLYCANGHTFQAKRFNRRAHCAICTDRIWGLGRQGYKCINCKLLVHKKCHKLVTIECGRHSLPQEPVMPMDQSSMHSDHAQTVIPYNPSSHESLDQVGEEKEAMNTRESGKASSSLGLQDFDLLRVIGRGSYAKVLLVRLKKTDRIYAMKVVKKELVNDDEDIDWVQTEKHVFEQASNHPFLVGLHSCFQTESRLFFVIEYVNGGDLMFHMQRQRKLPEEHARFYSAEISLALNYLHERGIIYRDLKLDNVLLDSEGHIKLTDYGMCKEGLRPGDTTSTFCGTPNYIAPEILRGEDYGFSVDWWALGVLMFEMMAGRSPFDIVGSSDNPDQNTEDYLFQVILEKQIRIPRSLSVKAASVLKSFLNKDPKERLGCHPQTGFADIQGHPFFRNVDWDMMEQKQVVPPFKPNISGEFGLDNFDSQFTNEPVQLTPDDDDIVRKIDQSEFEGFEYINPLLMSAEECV
Description: as §1

[3] = biological target: T3, CDK6/CycD2 (Homo sapiens, UniProt Q00534)
T3 construct: purchased ProQinase (Freiburg, Germany)
T3 sequence (Q00534 whole entry): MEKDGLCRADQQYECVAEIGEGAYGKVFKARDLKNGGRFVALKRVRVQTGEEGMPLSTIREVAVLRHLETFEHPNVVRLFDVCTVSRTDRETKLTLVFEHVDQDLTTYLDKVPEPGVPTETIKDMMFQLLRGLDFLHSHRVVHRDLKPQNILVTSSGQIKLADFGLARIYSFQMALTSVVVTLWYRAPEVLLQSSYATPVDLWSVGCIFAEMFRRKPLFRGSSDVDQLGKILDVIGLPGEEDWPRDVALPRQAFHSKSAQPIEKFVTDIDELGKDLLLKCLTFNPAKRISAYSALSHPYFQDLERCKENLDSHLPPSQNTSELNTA
T3 sequence (P30279 whole entry partner): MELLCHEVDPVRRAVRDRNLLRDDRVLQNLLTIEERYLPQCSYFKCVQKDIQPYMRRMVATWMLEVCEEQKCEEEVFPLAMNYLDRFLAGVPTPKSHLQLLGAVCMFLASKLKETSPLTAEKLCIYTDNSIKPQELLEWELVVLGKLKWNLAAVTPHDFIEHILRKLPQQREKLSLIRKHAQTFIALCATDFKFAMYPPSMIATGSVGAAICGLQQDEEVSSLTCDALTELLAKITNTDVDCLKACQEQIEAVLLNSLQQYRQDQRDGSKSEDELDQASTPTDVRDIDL
Description: as §1

[4] = biological target: T4, EPHA1 (Homo sapiens, UniProt P21709)
T4 construct: purchased ProQinase (Freiburg, Germany)
T4 sequence (P21709 26-976): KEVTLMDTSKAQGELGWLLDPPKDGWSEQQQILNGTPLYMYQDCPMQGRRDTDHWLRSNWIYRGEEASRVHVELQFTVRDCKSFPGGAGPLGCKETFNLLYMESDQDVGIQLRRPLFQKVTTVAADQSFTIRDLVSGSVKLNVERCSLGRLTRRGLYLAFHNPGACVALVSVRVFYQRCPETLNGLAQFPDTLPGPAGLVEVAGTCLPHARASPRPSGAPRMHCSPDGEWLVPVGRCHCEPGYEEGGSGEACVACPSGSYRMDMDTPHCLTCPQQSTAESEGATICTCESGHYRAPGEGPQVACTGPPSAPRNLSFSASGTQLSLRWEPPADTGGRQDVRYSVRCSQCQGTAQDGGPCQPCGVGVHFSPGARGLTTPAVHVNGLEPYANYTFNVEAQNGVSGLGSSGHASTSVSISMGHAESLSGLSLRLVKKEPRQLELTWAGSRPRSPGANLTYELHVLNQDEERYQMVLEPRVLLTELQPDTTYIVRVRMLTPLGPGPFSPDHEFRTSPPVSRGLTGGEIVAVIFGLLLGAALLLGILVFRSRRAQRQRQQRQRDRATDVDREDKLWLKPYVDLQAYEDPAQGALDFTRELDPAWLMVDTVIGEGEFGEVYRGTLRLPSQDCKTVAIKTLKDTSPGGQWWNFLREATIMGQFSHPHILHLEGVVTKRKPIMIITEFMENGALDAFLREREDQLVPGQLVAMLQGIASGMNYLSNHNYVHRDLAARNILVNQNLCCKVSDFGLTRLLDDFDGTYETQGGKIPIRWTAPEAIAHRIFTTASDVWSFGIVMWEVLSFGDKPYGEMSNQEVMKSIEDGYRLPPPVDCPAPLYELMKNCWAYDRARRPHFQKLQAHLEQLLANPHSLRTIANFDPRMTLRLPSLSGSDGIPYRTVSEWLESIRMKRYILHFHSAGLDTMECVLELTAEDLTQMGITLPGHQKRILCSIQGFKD
Description: as §1

[5] = biological target: T5, MAPKAPK2 (Homo sapiens, UniProt P49137)
T5 construct: purchased ProQinase (Freiburg, Germany)
T5 sequence (P49137 whole entry): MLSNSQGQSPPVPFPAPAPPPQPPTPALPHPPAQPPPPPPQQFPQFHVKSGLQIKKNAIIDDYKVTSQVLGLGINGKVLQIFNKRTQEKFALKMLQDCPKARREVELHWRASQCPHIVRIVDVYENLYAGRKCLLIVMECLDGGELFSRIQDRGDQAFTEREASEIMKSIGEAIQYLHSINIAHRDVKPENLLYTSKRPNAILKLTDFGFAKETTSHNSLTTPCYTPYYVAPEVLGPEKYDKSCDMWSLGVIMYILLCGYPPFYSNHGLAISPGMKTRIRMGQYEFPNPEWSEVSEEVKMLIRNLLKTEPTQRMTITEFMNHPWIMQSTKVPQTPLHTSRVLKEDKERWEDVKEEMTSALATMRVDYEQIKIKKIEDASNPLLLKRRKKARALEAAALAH
Description: as §1

[6] = biological target: T6, ROCK1 (Homo sapiens, UniProt Q13464)
T6 construct: purchased ProQinase (Freiburg, Germany)
T6 sequence (Q13464 whole entry): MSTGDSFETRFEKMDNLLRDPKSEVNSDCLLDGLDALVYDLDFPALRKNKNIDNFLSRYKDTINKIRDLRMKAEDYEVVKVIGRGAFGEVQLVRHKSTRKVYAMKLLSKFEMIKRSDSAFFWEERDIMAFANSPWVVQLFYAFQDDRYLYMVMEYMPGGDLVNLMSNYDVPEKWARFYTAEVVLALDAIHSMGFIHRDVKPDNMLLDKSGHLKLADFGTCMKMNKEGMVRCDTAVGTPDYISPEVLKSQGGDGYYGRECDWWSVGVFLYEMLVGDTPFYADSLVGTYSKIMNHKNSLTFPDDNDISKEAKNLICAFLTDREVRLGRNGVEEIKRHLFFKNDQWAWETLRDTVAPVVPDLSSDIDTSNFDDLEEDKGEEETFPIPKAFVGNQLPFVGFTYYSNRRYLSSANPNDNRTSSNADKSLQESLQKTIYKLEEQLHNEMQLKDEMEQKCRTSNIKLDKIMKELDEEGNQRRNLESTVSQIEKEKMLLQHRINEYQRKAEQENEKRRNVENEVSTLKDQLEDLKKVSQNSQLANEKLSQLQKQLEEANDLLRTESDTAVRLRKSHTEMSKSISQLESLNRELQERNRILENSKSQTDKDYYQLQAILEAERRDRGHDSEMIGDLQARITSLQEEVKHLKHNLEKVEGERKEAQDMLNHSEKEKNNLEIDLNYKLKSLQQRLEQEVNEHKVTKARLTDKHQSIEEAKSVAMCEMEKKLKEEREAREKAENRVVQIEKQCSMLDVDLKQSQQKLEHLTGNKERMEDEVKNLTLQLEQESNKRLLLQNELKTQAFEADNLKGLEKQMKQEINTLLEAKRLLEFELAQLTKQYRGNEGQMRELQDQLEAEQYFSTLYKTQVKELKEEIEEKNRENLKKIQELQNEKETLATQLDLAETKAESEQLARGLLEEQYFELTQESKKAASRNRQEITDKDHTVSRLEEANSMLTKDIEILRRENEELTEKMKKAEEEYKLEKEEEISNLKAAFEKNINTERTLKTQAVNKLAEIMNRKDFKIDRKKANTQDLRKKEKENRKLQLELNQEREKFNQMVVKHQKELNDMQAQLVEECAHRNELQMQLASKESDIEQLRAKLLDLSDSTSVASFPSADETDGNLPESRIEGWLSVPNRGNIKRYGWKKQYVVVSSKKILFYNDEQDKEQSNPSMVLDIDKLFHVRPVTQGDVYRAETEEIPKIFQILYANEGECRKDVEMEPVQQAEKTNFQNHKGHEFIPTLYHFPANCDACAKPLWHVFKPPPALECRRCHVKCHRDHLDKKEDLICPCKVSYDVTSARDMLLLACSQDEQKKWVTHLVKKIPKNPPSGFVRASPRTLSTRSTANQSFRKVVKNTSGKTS
Description: as §1

[7] = biological target: T7, GRK6 (Homo sapiens, UniProt P43250)
T7 construct: purchased ProQinase (Freiburg, Germany)
T7 sequence (P43250 whole entry): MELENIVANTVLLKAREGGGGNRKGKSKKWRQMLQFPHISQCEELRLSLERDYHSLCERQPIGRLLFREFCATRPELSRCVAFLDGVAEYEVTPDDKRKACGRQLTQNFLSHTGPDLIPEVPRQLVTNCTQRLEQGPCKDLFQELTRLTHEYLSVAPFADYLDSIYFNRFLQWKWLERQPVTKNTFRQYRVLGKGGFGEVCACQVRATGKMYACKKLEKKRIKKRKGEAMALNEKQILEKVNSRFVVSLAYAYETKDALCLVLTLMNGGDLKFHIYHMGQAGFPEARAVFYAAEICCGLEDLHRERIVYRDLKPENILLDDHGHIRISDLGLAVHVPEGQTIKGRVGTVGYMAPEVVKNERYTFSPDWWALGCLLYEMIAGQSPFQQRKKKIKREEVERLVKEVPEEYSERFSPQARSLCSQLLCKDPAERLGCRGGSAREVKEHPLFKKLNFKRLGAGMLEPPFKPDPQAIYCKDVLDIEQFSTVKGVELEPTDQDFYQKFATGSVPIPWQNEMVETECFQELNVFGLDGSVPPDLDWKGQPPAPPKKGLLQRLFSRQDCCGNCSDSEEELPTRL
Description: as §1

Row | Compound | Residual activity ([1]; 1.0E-05 M) | Residual activity ([1]; 1.0E-06 M) | Residual activity ([2]; 1.0E-05 M) | Residual activity ([2]; 1.0E-06 M) | Residual activity ([3]; 1.0E-05 M) | Residual activity ([3]; 1.0E-06 M) | Residual activity ([4]; 1.0E-05 M) | Residual activity ([4]; 1.0E-06 M) | Residual activity ([5]; 1.0E-05 M) | Residual activity ([5]; 1.0E-06 M) | Residual activity ([6]; 1.0E-05 M) | Residual activity ([6]; 1.0E-06 M) | Residual activity ([7]; 1.0E-05 M) | Residual activity ([7]; 1.0E-06 M)
1 | O=C(Cc1ccccc1)Nc1ccc(F)c(Nc2ccc3c(c2)CCCCC3=O)c1 [Compound 100] | 100 % of control | 101 % of control | 71 % of control | 94 % of control | 97 % of control | 97 % of control | 71 % of control | 83 % of control | 77 % of control | 121 % of control | 92 % of control | 99 % of control | 114 % of control | 117 % of control
2 | O=C(Nc1ccc(F)c(Nc2ccc3c(c2)CCCCC3=O)c1)c1cccc(F)c1 [Compound 109] | 94 % of control | 99 % of control | 77 % of control | 82 % of control | 94 % of control | 105 % of control | 85 % of control | 91 % of control | 78 % of control | 101 % of control | 102 % of control | 99 % of control | 121 % of control | 113 % of control

From article PMC9030254, “Target Hopping from Protein Kinases to PXR: Identification of Small-Molecule Protein Kinase Inhibitors as Selective Modulators of Pregnane X Receptor from TüKIC Library” (Cells, 2022)
